Assays:
[1] = JACKPOT2 single-ascending-dose plasma PK, healthy participants in USA; assay type: in vivo, human; conditions: for Cmax / Tmax / AUC(0-inf) / Vd/F / half-life: human, plasma; for Cmax / AUC(0-inf): geometric mean (CV%)
Description: This was a Phase I, randomized, double-blinded, placebo-controlled study to assess the safety, tolerability, and PK of golidocitinib in healthy participants in the USA. This study included two parts: part A (single-ascending-dose [SAD] and food effect [FE] cohorts) and part B (multiple-ascending-dose [MAD] cohorts). Please refer to Figure 1 for the study flowchart.
A total of 42 and 24 healthy participants were enrolled in part A and part B, respectively. In part A, a total of 30 participants were randomized into 5 SAD cohorts (n = 6 per cohort) and received a single dose of golidocitinib at different dose levels or a matching placebo in a 4:2 ratio. In the food effect cohort, a total of 12 participants were enrolled and received the study drug under fasted or fed conditions, with a sequential design. The 50 mg dose was selected based on available safety data after the completion of the SAD cohorts, and also on the outcomes from PK/PD modeling for potential efficacious dose for autoimmune disease. On Day 1, participants took a single dose of golidocitinib under fast condition. After a 14-day wash-out period, on Day 15, participants received another single dose of golidocitinib immediately after a standard high-fat meal. Food recipes and contents are consistent with that described in FDA Guidance for Food-Effect Bioavailability studies ([10]). For the fed condition, keeping fasted for at least 10 hours, participants started ingestion of high-fat meal 30 minutes prior to administration of golidocitinib. They had to finish the meal within 30 minutes or less, and no food was allowed for at least 4 hours post-dose. In part B, a total of 24 participants were randomized into 3 MAD cohorts, with 8 in each cohort (active:placebo = 6:2). In these cohorts, participants received golidocitinib at different dose levels or placebo once daily dosing for 14 days. Dose escalation was based on available PK and safety data in the previous cohorts.
In the SAD cohorts, serial blood samples were obtained on Day 1 at pre-dose, and at 0.5, 1, 1.5, 2, 3, 4, 6, 10, 14, 24 (Day 2), 48 (Day 3), 72 (Day 4), 120 (Day 6), 168 (Day 8) and 216 (Day 10) hours post-dose for plasma PK analysis. A similar sampling schedule was undertaken for the MAD cohorts on Day 1 and Day 14, with additional trough samples obtained on Days 5, Day 8, and Day 11. In the MAD cohorts, urine samples were collected on Day 14 during the collection intervals of 0-4, 4-10, and 10-24 hours following the last dose for urine PK analysis. Plasma and urine samples were analyzed by Frontage Laboratories Inc. (New Jersey, USA) using a validated LC/MS/MS bioanalytical method to determine golidocitinib concentrations. Cross validation in plasma was successful between Frontage Laboratories Inc. (New Jersey, USA) and Frontage Laboratories Inc. (Shanghai) using clinical samples and spiked quality control samples.
Non-compartmental PK analysis for golidocitinib concentrations was performed using Phoenix WinNonlin (Certara USA Inc., version 8.1).
Dose proportionality was concluded if the 90% confidence interval for the ratio of dose-normalized, geometric mean values (Rdnm) was contained completely within the range of 0.8 - 1.25 ([11], [12]).

[2] = Permeability in vitro; assay type: in vitro ADME
[3] = target: P-glycoprotein (P-gp) (Homo sapiens, UniProt P08183); test: In vitro P-gp substrate experiments; assay type: in vitro ADME; conditions: active transport saturable at high concentrations
Chain of P-glycoprotein (P-gp) (P08183 whole entry): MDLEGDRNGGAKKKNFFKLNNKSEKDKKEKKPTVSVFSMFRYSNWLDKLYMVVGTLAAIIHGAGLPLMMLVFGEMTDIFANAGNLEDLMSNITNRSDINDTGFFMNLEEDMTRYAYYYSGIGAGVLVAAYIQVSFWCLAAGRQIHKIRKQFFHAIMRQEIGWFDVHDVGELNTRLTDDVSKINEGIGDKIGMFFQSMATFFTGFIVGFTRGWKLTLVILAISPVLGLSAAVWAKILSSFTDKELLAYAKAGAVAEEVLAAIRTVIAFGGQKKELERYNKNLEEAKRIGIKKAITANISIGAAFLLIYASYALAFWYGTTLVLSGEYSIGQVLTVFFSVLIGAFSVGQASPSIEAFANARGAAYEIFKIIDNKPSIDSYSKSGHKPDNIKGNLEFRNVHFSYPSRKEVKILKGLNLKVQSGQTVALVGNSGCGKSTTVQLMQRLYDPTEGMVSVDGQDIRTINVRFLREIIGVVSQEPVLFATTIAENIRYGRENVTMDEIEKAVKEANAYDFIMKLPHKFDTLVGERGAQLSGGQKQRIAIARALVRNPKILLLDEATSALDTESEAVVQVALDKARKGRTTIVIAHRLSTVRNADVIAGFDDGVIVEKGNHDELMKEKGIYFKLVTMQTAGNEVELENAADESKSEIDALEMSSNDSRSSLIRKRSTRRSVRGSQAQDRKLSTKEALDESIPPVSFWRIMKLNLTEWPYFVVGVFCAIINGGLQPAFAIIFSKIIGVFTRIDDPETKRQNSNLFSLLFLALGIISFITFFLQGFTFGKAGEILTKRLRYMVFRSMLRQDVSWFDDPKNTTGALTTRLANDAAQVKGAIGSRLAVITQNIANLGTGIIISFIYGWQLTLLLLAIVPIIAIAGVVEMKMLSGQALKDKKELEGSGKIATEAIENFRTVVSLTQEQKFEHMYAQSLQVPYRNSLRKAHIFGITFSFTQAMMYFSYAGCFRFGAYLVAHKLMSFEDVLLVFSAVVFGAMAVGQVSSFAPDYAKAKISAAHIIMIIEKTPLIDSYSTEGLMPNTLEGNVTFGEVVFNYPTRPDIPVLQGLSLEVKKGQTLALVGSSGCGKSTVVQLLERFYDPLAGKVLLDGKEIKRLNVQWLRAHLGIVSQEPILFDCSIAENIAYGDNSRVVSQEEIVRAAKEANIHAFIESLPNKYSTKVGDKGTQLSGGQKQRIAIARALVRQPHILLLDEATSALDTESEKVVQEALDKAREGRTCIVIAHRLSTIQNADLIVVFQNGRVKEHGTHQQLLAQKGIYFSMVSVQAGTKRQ

[4] = JACKPOT3 single-ascending-dose plasma PK, healthy Chinese participants; assay type: in vivo, human; conditions: for AUC(0-inf) / Cmax / Vd/F / half-life / Tmax: human, plasma; for AUC(0-inf) / Cmax: geometric mean (CV%)
Description: This was a SAD study in healthy adult Asian participants, with a study design similar to the SAD cohorts of JACKPOT2 study. […] A total of 32 healthy participants were randomized to receive a single dose of golidocitinib or matched placebo (6:2).
After single oral administration, serial blood samples were obtained on Day 1 at pre-dose, and at 0.5, 1, 1.5, 2, 3, 4, 6, 8, 12, 24 (Day 2), 48 (Day 3), 72 (Day 4), 120 (Day 6), 168 (Day 8) and 216 (Day 10) hours post-dose for plasma PK analysis. Urine samples were collected during the collection intervals of 0-4, 4-10, 10-24, 24-48, 48-72, 72-96, 96-120, 120-144, and 144-168 hours following a single oral dose of 100 mg for urine PK analysis. Validated LC/MS methods were used for the determination of golidocitinib in human plasma and urine by Frontage Laboratories Inc. (Shanghai). This method was cross validated by Frontage Laboratories Inc. (New Jersey, USA) and met the acceptance criteria.

[5] = set-up: method as in JACKPOT5, NCT04225208; conditions: concluded from metabolic profile in human, radiolabeled mass balance study in 8 healthy participants ref JACKPOT5, NCT04225208; cited from earlier work
[6] = oral, single dose 50 mg, mean (SD), read-out: Vz/F
[7] = oral, single dose 50 mg, median (min, max), read-out: t1/2 (converted)
[8] = oral, single dose 50 mg, median (min, max), read-out: tmax
[9] = oral, single dose 100 mg, mean (SD), read-out: Vz/F
[10] = oral, single dose 100 mg, median (min, max), read-out: t1/2 (converted)
[11] = oral, single dose 100 mg, median (min, max), read-out: tmax
[12] = oral, single dose 150 mg, mean (SD), read-out: Vz/F
[13] = oral, single dose 150 mg, median (min, max), read-out: t1/2 (converted)
[14] = oral, single dose 150 mg, median (min, max), read-out: tmax

Q: Which Cmax ([1]; oral, single dose 5 mg) does the source give for `COc1nn(C)cc1Nc1nccc(-c2c[nH]c3c(NC(=O)[C@@H](C)N4CCN(C)CC4)cccc23)n1` [golidocitinib, (2R)-N-[3-[2-[(3-Methoxy-1-methyl-pyrazol-4-yl)amino]pyrimidin-4-yl]-1H-indol-7-yl]-2-(4-methylpiperazin-1-yl)propenamide] here?
A: 5.14 ng/mL

Q: What about the Tmax ([1]; oral, single dose 5 mg, median (min, max), read-out: tmax) of the same compound?
A: 8 h

Q: What about the AUC(0-inf) ([1]; oral, single dose 20 mg) of the same compound?
A: 923 ng·h/mL

Q: And the Cmax ([1]; oral, single dose 20 mg)?
A: 18.6 ng/mL

Q: What about the Vd/F ([1]; oral, single dose 20 mg, mean (SD), read-out: Vz/F) of the same compound?
A: 1540 L

Q: And the half-life ([1]; oral, single dose 20 mg, median (min, max), read-out: t1/2 (converted))?
A: 51.3 h

Q: What about the Tmax ([1]; oral, single dose 20 mg, median (min, max), read-out: tmax) of the same compound?
A: 8 h

Q: And the AUC(0-inf) ([1]; oral, single dose 50 mg)?
A: 2340 ng·h/mL

Q: And the Cmax ([1]; oral, single dose 50 mg)?
A: 48.5 ng/mL

Q: What about the Vd/F [1, 6] of the same compound?
A: 1420 L

Q: What about the half-life [1, 7] of the same compound?
A: 42.8 h

Q: And the Tmax [1, 8]?
A: 6 h

Q: And the AUC(0-inf) ([1]; oral, single dose 100 mg)?
A: 5260 ng·h/mL

Q: What about the Cmax ([1]; oral, single dose 100 mg) of the same compound?
A: 133 ng/mL

Q: What about the Vd/F [1, 9] of the same compound?
A: 1380 L

Q: What about the half-life [1, 10] of the same compound?
A: 50.4 h

Q: And the Tmax [1, 11]?
A: 2.5 h

Q: What about the AUC(0-inf) ([1]; oral, single dose 150 mg) of the same compound?
A: 7260 ng·h/mL

Q: What about the Cmax ([1]; oral, single dose 150 mg) of the same compound?
A: 232 ng/mL

Q: And the Vd/F [1, 12]?
A: 1400 L

Q: What about the half-life [1, 13] of the same compound?
A: 46.6 h

Q: What about the Tmax [1, 14] of the same compound?
A: 3 h

Q: And the Vd/F ([1]; single oral administration, US participants, read-out: mean Vz/F)?
A: 1380 to 1540 L

Q: What about the half-life ([1]; single oral administration, across the dose range, US participants, read-out: median terminal half-life (t1/2)) of the same compound?
A: 42.8 to 51.3 h

Q: And the Tmax ([1]; single oral administration, across the dose range, US participants, read-out: median tmax)?
A: 2.5 to 8 h

Q: And the CL/F ([1]; single dose 20 mg, mean (SD))?
A: 21.7 (1.18) L/hr

Q: What about the CL/F ([1]; single dose 50 mg, mean (SD)) of the same compound?
A: 22.1 (6.20) L/hr

Q: What about the CL/F ([1]; single dose 100 mg, mean (SD)) of the same compound?
A: 19.2 (3.09) L/hr

Q: What about the CL/F ([1]; single dose 150 mg, mean (SD)) of the same compound?
A: 21.9 (8.58) L/hr

Q: What about the permeability [2] of the same compound?
A: high permeability

Q: What about the P-gp substrate status [3] of the same compound?
A: P-glycoprotein (P-gp) substrate

Q: What about the AUC(0-inf) ([4]; oral, single dose 25 mg) of the same compound?
A: 1230 ng·h/mL

Q: And the Cmax ([4]; oral, single dose 25 mg)?
A: 40.8 ng/mL

Q: And the Vd/F ([4]; oral, single dose 25 mg, mean (SD), read-out: Vz/F)?
A: 1040 L

Q: And the half-life ([4]; oral, single dose 25 mg, median (min, max), read-out: t1/2 (converted))?
A: 38 h

Q: And the Tmax ([4]; oral, single dose 25 mg, median (min, max), read-out: tmax)?
A: 3 h

Q: And the AUC(0-inf) ([4]; oral, single dose 50 mg)?
A: 2370 ng·h/mL

Q: What about the Cmax ([4]; oral, single dose 50 mg) of the same compound?
A: 75 ng/mL

Q: And the Vd/F [4, 6]?
A: 1160 L

Q: What about the half-life [4, 7] of the same compound?
A: 39.1 h

Q: And the Tmax [4, 8]?
A: 2 h

Q: What about the AUC(0-inf) ([4]; oral, single dose 100 mg) of the same compound?
A: 4740 ng·h/mL

Q: What about the Cmax ([4]; oral, single dose 100 mg) of the same compound?
A: 184 ng/mL

Q: And the Vd/F [4, 9]?
A: 826 L

Q: What about the half-life [4, 10] of the same compound?
A: 28.3 h

Q: What about the Tmax [4, 11] of the same compound?
A: 2 h

Q: What about the AUC(0-inf) ([4]; oral, single dose 150 mg) of the same compound?
A: 8340 ng·h/mL

Q: What about the Cmax ([4]; oral, single dose 150 mg) of the same compound?
A: 280 ng/mL

Q: And the Vd/F [4, 12]?
A: 1210 L

Q: And the half-life [4, 13]?
A: 46.7 h

Q: And the Tmax [4, 14]?
A: 1.75 h

Q: And the Vd/F ([4]; single oral administration, Chinese participants, read-out: mean Vz/F)?
A: 826 to 1210 L

Q: What about the half-life ([4]; single oral administration, across the dose range, Chinese participants, read-out: median terminal half-life (t1/2)) of the same compound?
A: 28.3 to 46.7 h

Q: And the Tmax ([4]; single oral administration, across the dose range, Chinese participants, read-out: median tmax)?
A: 1.75 to 3 h

Q: And the CL/F ([4]; single dose 50 mg, mean (SD))?
A: 21.2 (13.1) L/hr

Q: What about the CL/F ([4]; single dose 100 mg, mean (SD)) of the same compound?
A: 21.4 (16.5) L/hr

Q: What about the CL/F ([4]; single dose 150 mg, mean (SD)) of the same compound?
A: 18.1 (14.2) L/hr

Q: What about the oral bioavailability [5] of the same compound?
A: > 80%

— article PMC10108266, “Pharmacokinetic characteristics of golidocitinib, a highly selective JAK1 inhibitor, in healthy adult participants” (Frontiers in Immunology, 2023)
